From US20070275854A1, “Agrochemical Composition Containing Phosphoric Acid Ester” (priority 2004, published 2007)

Assays:
Assay type in all cases: in vivo
Avena fatura L. (AVEFA) = test: Glasshouse herbicide efficacy of clodinafop propargyl (Topic 240) with adjuvants, fresh weight after 21 days; conditions: clodinafop propargyl 5 g a.i./ha (Topic 240 in water), adjuvant where named 0.25% w/v, plants in 2-3-leaf stage, untreated 17.48 g
Method: Test formulations are prepared by mixing the commercially available formulation Topic 240, which contains 240 g of clodinafop propargyl per liter of formulation, as stated by the manufacturer (Syngenta), with water. The adjuvants are added to this emulsion in an amount corresponding to a concentration of 0.25% w/v (2.5 g/l). These test solutions are applied in various concentrations (concentration stated in g a.i/ha, where a.i. means active ingredient) to the plant species Avena fatura L. (AVEFA) while they are in the 2-3-leaf stage in a glasshouse as shown in the following table.
After 21 days, the efficacy of the herbicidal formulation is assessed by weighing the plant parts which are still present (fresh weight).

[1] = tested on: Lolium perenne L. (LOLPE); test: Glasshouse herbicide efficacy of imazethapyrammonium with adjuvants, fresh weight after 14 days; conditions: imazethapyrammonium 4.0 g ae/ha, adjuvant where named 0.25% w/v, plants in 2-3-leaf stage, untreated 13.97 g
Method: (§1) Test formulations are prepared by adjusting an aqueous solution of imazethapyrammonium to a concentration of 5 mmol. The adjuvants are added to this solution in an amount corresponding to a concentration of 0.25% w/v (2.5 g/l). These test solutions are applied in various concentrations (concentration stated g ae/ha, where ae means acidic equivalent) to the plant species Solanum Nigrum L. (SOLNI) and Lolium perenne L. (LOLPE) while they are in the 2-3-leaf stage in a glasshouse as shown in the following table.
(§2) After 14 days, the efficacy of the herbicidal formulation is assessed by weighing the plant parts still present (fresh weight).

[2] = tested on: Solanum Nigrum L. (SOLNI); test: as above; conditions: imazethapyrammonium 4.0 g ae/ha, adjuvant where named 0.25% w/v, plants in 2-3-leaf stage, untreated 15.42 g
Method: as §1, §2

Row | Structure (SMILES) | fresh weight [g] AVEFA (Avena fatura L. (AVEFA)) | fresh weight [g] LOLPE [1] | fresh weight [g] SOLNI [2]
1 | C#CCOC(=O)[C@@H](C)Oc1ccc(Oc2ncc(Cl)cc2F)cc1 [Clodinafop propargyl, clodinafop propargyl] | 15.69 g |  | 
2 | CCc1cnc(C2=NC(C)(C(C)C)C(=O)N2)c(C(=O)O)c1.N (stereo not drawn) [Imazethapyrammonium, imazethapyrammonium] |  | 13.40 g | 10.61 g
